Laboratory results reported in ChEMBL document CHEMBL5653615 (J Biol Chem, 2013).

Columns and labels:
[1] = target: Calcium/calmodulin-dependent protein kinase kinase 1 (Homo sapiens) (UniProt Q8N5S9); experiment: Inhibition of human CAMKK1 at 18.6 nM by HotSpot assay relative to control
[2] = target: Cyclin-dependent kinase 7/ cyclin H (Homo sapiens) (UniProt P51946+P50613); experiment: Inhibition of human CDK7/cyclin H at 18.6 nM by HotSpot assay relative to control; format: protein-complex assay
[3] = target: Casein kinase I isoform gamma-2 (Homo sapiens) (UniProt P78368); experiment: Inhibition of human CK1g2 at 18.6 nM by HotSpot assay relative to control
[4] = target: Ephrin type-A receptor 2 (Homo sapiens) (UniProt P29317); experiment: Inhibition of human EPHA2 at 18.6 nM by HotSpot assay relative to control
[5] = target: Vascular endothelial growth factor receptor 1 (Homo sapiens) (UniProt P17948); experiment: Inhibition of human FLT1 at 18.6 nM by HotSpot assay relative to control
[6] = target: Serine/threonine-protein kinase PAK 1 (Homo sapiens) (UniProt Q13153); experiment: Inhibition of human PAK1 at 18.6 nM by HotSpot assay relative to control
[7] = target: T1, 3-phosphoinositide-dependent protein kinase 1 (Homo sapiens) (UniProt O15530); experiment: Inhibition of human PDPK1 at 18.6 nM by HotSpot assay relative to control
T1 sequence (whole entry): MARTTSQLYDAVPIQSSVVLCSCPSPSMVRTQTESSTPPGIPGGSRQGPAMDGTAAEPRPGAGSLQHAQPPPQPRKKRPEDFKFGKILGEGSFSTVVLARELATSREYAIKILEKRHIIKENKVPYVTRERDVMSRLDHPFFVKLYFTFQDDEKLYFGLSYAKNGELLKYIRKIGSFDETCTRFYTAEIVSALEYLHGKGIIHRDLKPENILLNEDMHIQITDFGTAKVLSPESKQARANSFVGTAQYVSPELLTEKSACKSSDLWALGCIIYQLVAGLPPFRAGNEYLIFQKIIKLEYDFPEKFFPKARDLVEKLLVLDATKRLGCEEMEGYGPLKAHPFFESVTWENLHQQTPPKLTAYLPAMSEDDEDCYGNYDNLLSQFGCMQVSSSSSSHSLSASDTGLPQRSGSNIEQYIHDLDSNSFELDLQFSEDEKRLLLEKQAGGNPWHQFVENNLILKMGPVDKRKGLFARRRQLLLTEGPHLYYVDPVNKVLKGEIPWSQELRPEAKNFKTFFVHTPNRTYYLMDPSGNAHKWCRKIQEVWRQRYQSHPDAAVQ

[8] = target: STE20/SPS1-related proline-alanine-rich protein kinase (Homo sapiens) (UniProt Q9UEW8); experiment: Inhibition of human STLK3 at 18.6 nM by HotSpot assay relative to control
[9] = target: T2, Activin receptor type-1B (Homo sapiens) (UniProt P36896); experiment: Inhibition of human ALK4 at 1.82 nM by HotSpot assay relative to control
T2 sequence (whole entry): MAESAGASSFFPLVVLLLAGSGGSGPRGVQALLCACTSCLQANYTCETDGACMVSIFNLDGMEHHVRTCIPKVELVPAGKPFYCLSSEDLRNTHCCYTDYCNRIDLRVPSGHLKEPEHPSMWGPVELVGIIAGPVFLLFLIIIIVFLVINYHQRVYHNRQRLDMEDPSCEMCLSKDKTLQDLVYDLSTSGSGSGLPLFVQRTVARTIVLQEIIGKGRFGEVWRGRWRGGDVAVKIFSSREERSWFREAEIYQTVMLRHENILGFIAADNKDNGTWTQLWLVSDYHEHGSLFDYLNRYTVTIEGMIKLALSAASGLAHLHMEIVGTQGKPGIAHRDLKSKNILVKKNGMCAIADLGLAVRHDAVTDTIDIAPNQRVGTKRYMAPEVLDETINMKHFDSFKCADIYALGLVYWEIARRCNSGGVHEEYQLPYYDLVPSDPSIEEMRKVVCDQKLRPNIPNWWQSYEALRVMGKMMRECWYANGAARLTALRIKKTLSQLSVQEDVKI

[10] = target: T3, Ephrin type-A receptor 8 (Homo sapiens) (UniProt P29322); experiment: Inhibition of human EPHA8 at 1.82 nM by HotSpot assay relative to control
T3 sequence (whole entry): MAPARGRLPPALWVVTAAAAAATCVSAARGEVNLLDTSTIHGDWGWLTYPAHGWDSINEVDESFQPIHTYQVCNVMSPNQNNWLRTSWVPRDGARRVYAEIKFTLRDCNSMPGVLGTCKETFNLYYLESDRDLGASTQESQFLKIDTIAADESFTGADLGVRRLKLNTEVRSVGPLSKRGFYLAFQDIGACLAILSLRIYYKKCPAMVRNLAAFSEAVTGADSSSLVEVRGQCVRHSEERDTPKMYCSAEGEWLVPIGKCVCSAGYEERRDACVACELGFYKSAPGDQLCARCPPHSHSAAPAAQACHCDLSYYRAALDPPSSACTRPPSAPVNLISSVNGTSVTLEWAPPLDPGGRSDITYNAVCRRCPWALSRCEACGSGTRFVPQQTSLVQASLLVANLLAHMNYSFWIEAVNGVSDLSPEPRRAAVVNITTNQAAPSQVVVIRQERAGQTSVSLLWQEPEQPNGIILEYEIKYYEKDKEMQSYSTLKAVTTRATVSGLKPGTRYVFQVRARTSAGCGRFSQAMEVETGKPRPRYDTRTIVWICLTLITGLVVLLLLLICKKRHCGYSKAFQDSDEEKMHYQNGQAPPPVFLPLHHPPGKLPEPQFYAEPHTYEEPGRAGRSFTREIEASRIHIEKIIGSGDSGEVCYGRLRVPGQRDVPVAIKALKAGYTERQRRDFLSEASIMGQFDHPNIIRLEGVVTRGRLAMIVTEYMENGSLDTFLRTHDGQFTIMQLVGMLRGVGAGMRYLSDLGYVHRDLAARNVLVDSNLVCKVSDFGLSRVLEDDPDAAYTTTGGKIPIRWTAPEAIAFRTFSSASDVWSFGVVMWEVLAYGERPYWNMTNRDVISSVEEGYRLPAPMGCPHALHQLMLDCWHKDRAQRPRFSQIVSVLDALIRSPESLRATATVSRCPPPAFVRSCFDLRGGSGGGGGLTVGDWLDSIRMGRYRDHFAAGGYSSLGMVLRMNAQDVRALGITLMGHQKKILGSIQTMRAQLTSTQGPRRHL

[11] = target: Tyrosine-protein kinase Lyn (Homo sapiens) (UniProt P07948); experiment: Inhibition of human LYN B at 1.82 nM by HotSpot assay relative to control
[12] = target: Phosphorylase b kinase gamma catalytic chain, skeletal muscle/heart isoform (Homo sapiens) (UniProt Q16816); experiment: Inhibition of human PHKg1 at 1.82 nM by HotSpot assay relative to control
Phosphorylase b kinase gamma catalytic chain, skeletal muscle/heart isoform (Homo sapiens), sequence (Q16816 whole entry, looked up, canonical isoform): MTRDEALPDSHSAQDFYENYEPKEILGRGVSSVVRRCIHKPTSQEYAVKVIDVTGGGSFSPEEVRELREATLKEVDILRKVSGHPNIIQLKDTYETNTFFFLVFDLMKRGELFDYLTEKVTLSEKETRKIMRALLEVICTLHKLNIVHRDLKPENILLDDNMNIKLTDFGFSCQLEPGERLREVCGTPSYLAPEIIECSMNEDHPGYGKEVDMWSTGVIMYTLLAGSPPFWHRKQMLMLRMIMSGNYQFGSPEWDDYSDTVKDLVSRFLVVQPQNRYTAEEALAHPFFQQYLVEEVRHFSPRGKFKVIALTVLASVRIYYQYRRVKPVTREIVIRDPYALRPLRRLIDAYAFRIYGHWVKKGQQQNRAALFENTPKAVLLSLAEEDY

Vascular endothelial growth factor receptor 1 (Homo sapiens), sequence (P17948 whole entry): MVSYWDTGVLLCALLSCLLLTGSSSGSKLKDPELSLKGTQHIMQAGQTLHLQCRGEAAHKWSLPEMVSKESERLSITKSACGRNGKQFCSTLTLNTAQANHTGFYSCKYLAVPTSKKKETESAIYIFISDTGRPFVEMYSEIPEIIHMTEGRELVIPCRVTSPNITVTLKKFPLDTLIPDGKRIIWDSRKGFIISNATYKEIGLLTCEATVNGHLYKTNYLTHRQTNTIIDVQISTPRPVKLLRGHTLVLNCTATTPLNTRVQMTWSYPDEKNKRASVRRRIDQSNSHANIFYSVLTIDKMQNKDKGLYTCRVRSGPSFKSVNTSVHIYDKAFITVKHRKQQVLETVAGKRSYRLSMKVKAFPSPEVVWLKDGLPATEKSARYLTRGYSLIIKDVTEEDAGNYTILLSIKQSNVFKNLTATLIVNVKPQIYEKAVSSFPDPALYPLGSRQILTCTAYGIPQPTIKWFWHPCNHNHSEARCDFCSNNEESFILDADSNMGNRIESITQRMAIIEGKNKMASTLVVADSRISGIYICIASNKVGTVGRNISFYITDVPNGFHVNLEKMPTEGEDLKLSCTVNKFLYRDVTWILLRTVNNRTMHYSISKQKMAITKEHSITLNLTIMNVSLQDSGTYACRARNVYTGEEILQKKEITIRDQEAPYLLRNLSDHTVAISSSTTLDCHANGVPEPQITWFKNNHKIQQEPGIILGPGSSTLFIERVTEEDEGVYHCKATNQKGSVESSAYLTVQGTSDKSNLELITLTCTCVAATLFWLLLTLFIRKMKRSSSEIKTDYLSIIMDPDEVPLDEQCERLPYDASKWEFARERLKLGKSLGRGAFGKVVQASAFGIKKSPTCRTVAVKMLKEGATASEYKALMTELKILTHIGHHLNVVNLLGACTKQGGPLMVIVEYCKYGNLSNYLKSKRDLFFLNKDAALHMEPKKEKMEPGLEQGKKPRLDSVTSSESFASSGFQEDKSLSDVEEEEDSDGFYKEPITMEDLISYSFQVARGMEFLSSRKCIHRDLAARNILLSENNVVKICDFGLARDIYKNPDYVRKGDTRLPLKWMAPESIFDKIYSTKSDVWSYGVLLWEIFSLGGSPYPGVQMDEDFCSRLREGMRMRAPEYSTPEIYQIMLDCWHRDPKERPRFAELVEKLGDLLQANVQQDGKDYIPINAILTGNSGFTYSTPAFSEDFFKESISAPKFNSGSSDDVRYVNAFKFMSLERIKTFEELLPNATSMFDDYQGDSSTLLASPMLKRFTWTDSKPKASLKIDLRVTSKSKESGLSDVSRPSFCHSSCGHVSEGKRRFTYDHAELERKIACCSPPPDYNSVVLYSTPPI
Tyrosine-protein kinase Lyn (Homo sapiens), sequence (P07948 2-512 limits assumed): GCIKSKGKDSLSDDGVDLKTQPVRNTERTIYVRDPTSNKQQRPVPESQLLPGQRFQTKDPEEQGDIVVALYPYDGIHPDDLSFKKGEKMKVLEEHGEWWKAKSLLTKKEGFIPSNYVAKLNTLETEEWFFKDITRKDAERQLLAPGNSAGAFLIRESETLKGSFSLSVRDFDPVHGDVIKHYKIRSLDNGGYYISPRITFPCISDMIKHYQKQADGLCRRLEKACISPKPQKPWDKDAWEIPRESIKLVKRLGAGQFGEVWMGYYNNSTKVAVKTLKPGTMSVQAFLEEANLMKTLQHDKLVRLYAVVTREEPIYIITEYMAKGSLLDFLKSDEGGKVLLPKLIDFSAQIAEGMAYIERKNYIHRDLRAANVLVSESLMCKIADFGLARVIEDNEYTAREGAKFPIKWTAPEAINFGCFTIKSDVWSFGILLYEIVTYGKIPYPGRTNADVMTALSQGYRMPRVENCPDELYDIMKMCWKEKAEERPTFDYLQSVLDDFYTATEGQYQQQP
Casein kinase I isoform gamma-2 (Homo sapiens), sequence (P78368 whole entry, looked up, canonical isoform): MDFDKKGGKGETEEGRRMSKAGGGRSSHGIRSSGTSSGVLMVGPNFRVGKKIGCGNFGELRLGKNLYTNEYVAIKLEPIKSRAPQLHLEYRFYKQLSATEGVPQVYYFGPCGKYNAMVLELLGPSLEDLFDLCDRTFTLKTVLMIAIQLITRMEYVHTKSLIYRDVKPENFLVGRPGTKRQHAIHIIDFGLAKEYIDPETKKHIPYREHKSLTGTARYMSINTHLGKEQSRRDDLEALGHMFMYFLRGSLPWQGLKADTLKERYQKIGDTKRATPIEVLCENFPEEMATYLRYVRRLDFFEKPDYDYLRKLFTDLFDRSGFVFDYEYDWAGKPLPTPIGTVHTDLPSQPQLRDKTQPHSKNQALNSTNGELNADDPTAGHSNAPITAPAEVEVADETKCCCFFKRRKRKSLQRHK
Calcium/calmodulin-dependent protein kinase kinase 1 (Homo sapiens), sequence (Q8N5S9 whole entry, looked up): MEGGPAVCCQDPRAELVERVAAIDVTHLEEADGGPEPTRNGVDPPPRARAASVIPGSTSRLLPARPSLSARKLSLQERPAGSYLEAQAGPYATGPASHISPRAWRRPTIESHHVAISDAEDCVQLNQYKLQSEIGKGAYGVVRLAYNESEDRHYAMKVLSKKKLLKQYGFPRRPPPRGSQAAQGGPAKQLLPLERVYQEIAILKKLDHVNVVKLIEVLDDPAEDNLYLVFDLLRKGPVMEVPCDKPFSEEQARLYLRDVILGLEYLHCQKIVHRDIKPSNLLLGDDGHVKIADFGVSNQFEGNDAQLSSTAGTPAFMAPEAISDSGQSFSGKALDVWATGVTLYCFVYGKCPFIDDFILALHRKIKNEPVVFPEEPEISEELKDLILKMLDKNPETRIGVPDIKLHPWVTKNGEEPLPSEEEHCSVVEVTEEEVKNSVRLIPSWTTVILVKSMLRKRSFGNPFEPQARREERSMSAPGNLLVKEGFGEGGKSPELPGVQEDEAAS
Ephrin type-A receptor 2 (Homo sapiens), sequence (P29317 whole entry): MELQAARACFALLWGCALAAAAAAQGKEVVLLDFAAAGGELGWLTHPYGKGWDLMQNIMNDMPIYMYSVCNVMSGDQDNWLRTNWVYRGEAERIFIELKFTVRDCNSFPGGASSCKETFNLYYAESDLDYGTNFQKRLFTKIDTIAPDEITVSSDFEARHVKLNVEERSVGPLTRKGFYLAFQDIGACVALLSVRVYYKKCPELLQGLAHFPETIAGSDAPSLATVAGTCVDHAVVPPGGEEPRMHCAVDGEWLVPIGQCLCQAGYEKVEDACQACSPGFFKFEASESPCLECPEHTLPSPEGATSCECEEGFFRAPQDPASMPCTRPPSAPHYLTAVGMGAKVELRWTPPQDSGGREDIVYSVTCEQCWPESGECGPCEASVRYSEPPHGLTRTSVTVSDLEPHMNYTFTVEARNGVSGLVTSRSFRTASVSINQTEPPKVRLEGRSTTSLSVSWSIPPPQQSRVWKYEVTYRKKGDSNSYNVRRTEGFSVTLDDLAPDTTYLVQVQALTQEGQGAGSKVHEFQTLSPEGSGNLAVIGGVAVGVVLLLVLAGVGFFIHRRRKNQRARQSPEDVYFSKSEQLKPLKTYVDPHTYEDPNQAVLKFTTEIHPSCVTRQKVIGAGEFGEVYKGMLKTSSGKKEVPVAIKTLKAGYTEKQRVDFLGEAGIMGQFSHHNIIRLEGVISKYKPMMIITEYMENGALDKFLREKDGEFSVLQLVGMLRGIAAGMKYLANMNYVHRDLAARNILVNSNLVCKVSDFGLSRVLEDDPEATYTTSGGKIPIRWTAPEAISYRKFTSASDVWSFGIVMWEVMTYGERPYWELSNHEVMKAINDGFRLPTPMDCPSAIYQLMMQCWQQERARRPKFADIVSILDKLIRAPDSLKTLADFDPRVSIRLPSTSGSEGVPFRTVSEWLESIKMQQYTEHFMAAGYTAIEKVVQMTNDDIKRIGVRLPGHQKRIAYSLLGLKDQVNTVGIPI
Serine/threonine-protein kinase PAK 1 (Homo sapiens), sequence (Q13153 whole entry): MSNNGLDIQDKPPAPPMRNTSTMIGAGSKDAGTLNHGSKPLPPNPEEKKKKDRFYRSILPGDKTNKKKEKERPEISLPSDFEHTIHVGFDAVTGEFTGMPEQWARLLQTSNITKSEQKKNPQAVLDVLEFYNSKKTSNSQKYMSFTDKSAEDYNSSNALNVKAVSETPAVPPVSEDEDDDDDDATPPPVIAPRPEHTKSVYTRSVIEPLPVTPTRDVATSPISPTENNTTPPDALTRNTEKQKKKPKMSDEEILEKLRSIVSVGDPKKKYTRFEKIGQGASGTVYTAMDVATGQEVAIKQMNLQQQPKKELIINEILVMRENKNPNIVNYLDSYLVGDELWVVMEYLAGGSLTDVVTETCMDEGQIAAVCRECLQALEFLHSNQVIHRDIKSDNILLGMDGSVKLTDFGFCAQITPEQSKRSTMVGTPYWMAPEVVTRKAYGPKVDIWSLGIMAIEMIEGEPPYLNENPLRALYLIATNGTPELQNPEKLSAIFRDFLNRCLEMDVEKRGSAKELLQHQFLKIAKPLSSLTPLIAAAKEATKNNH

Row | SMILES | inhibition [1] | inhibition [2] | inhibition [3] | inhibition [4] | inhibition [5] | inhibition [6] | inhibition [7] | inhibition [8] | inhibition [9] | inhibition [10] | inhibition [11] | inhibition [12]
1 | C[C@]1(O)C[C@@H](c2nc(-c3ccc4ccc(-c5ccccc5)nc4c3)c3c(N)nccn32)C1 | 5.54% | -4.42% | -6.22% | 2.9% | -4.23% | -0.8% | -0.41% | -7.19% |  |  |  | 
2 | C[C@@]1(C(=O)Nc2ccc(F)nc2)CCCN1c1nc(Nc2cc(C3CC3)n[nH]2)c2cccn2n1 |  |  |  |  |  |  |  |  | 0.66% | -4.62% | 2.74% | 2.68%
